Tests used:
K562 [1] = test: Induction of cell cycle arrest in human K562 cells assessed as downregulation of cyclin-B1 expression incubated for 48 hrs by Western blot analysis; assay type: functional, cell-based; conditions: dose 100-400 nM
K562 [2] = test: Induction of apoptosis in human K562 cells assessed as necrotic cells at 100 nM incubated for 48 hrs by Annexin-V and PI staining based flow cytometry analysis (reference value: 1.72%); assay type: functional
K562 [3] = test: Induction of cell cycle arrest in human K562 cells assessed as downregulation of cdc-25c expression incubated for 48 hrs by Western blot analysis; assay type: functional, cell-based; conditions: dose 100-400 nM
K562 [4] = test: Induction of apoptosis in human K562 cells assessed as late apoptotic cells at 400 nM incubated for 48 hrs by Annexin-V and PI staining based flow cytometry analysis (reference value: 2.42%); assay type: functional
K562 [5] = test: Potency index, ratio of oridonin IC50 to compound IC50 for antiproliferative activity against human K562 cells after 72 hrs by MTT assay; assay type: functional
K562 [6] = test: Induction of cell cycle arrest in human K562 cells assessed as accumulation of cells at S phase at 400 nM incubated for 48 hrs by PI staining based flow cytometry analysis (reference value: 18.85%); assay type: functional
K562 [7] = test: Induction of apoptosis in human K562 cells assessed as necrotic cells at 400 nM incubated for 48 hrs by Annexin-V and PI staining based flow cytometry analysis (reference value: 1.72%); assay type: functional
K562 [8] = test: Induction of ROS generation in human K562 cells at 400 nM incubated for 48 hrs by DCFH-DA staining based flow cytometry analysis (reference value: 4.82%); assay type: functional
K562 [9] = test: Induction of cell cycle arrest in human K562 cells assessed as accumulation of cells at S phase at 100 nM incubated for 48 hrs by PI staining based flow cytometry analysis (reference value: 18.85%); assay type: functional
[10] = Cytotoxicity against human L02 cells incubated for 72 hrs by MTT assay; assay type: toxicity, cell-based
K562 [11] = test: Induction of cell cycle arrest in human K562 cells assessed as accumulation of cells at G1 phase at 400 nM incubated for 48 hrs by PI staining based flow cytometry analysis (reference value: 68.84%); assay type: functional
SMMC-7721 = test: Antiproliferative activity against human SMMC-7721 cells assessed as reduction in cell growth after 72 hrs by MTT assay; assay type: functional, cell-based; conditions: SMMC-7721, 72 h
Cell membrane [12] = test: Induction of mitochondrial membrane depolarization in human K562 cells incubated for 48 hrs by JC-1 staining based flow cytometry analysis; conditions: Mitochondria, dose […]
SW480 = test: Antiproliferative activity against human SW480 cells assessed as reduction in cell growth after 72 hrs by MTT assay; assay type: functional, cell-based; conditions: SW480, 72 h
K562 [13] = test: Induction of cell cycle arrest in human K562 cells assessed as accumulation of cells at G2 phase at 100 nM incubated for 48 hrs by PI staining based flow cytometry analysis (reference value: 12.31%); assay type: functional
K562 [14] = test: Induction of apoptosis in human K562 cells assessed as viable cells at 400 nM incubated for 48 hrs by Annexin-V and PI staining based flow cytometry analysis (reference value: 93.87%); assay type: functional; conditions: read-out: Activity
K562 [15] = test: Induction of cell cycle arrest in human K562 cells assessed as accumulation of cells at G2 phase at 400 nM incubated for 48 hrs by PI staining based flow cytometry analysis (reference value: 12.31%); assay type: functional
K562 [16] = test: Induction of cell cycle arrest in human K562 cells assessed as downregulation of cdc-2 expression incubated for 48 hrs by Western blot analysis; assay type: functional, cell-based; conditions: dose 100-400 nM
K562 [17] = test: Induction of cell cycle arrest in human K562 cells assessed as accumulation of cells at G1 phase at 100 nM incubated for 48 hrs by PI staining based flow cytometry analysis (reference value: 68.84%); assay type: functional
[18] = Selectivity index, ratio of IC50 for human L02 cells to IC50 for human SMMC-7721 cells; assay type: toxicity; conditions: L02 cells versus SMMC-7721 cells, read-out: Ratio IC50
K562 [19] = test: Induction of apoptosis in human K562 cells assessed as viable cells at 100 nM incubated for 48 hrs by Annexin-V and PI staining based flow cytometry analysis (reference value: 93.87%); assay type: functional; conditions: read-out: Activity
K562 [20] = test: Induction of apoptosis in human K562 cells assessed as early apoptotic cells at 100 nM incubated for 48 hrs by Annexin-V and PI staining based flow cytometry analysis (reference value: 1.98%); assay type: functional
K562 [21] = test: Induction of apoptosis in human K562 cells assessed as early apoptotic cells at 200 nM incubated for 48 hrs by Annexin-V and PI staining based flow cytometry analysis (reference value: 1.98%); assay type: functional
MDA-MB-231 = test: Antiproliferative activity against human MDA-MB-231 cells assessed as reduction in cell growth after 72 hrs by MTT assay; assay type: functional, cell-based; conditions: MDA-MB-231, 72 h
K562 [22] = test: Induction of cell cycle arrest in human K562 cells assessed as accumulation of cells at G1 phase at 200 nM incubated for 48 hrs by PI staining based flow cytometry analysis (reference value: 68.84%); assay type: functional
K562 [23] = test: Induction of ROS generation in human K562 cells incubated for 48 hrs by DCFH-DA staining based flow cytometry analysis; assay type: functional, cell-based; conditions: dose […]
K562 [24] = test: Induction of apoptosis in human K562 cells assessed as early apoptotic cells at 400 nM incubated for 48 hrs by Annexin-V and PI staining based flow cytometry analysis (reference value: 1.98%); assay type: functional
Cell membrane [25] = test: Induction of mitochondrial membrane depolarization in human K562 cells assessed as lower right phase cells at […] incubated for 48 hrs by JC-1 staining based flow cytometry analysis; conditions: Mitochondria
K562 [26] = test: Induction of apoptosis in human K562 cells assessed as necrotic cells at 200 nM incubated for 48 hrs by Annexin-V and PI staining based flow cytometry analysis (reference value: 1.72%); assay type: functional
K562 [27] = test: Induction of cell cycle arrest in human K562 cells assessed as accumulation of cells at G2 phase at 200 nM incubated for 48 hrs by PI staining based flow cytometry analysis (reference value: 12.31%); assay type: functional
K562 [28] = test: Induction of apoptosis in human K562 cells assessed as late apoptotic cells at 200 nM incubated for 48 hrs by Annexin-V and PI staining based flow cytometry analysis (reference value: 2.42%); assay type: functional
K562 [29] = test: Induction of apoptosis in human K562 cells assessed as viable cells at 200 nM incubated for 48 hrs by Annexin-V and PI staining based flow cytometry analysis (reference value: 93.87%); assay type: functional; conditions: read-out: Activity
K562 [30] = test: Antiproliferative activity against human K562 cells assessed as reduction in cell growth after 72 hrs by MTT assay; assay type: functional, cell-based; conditions: K562, 72 h
K562 [31] = test: Induction of cell cycle arrest in human K562 cells assessed as accumulation of cells at S phase at 200 nM incubated for 48 hrs by PI staining based flow cytometry analysis (reference value: 18.85%); assay type: functional
K562 [32] = test: Induction of apoptosis in human K562 cells assessed as late apoptotic cells at 100 nM incubated for 48 hrs by Annexin-V and PI staining based flow cytometry analysis (reference value: 2.42%); assay type: functional

IC50 (SMMC-7721): 560 nM | Activity (Cell membrane [12]): Dose-Dependent Effect | IC50 (SW480): 480 nM | IC50 (MDA-MB-231): 980 nM | Activity (Cell membrane [25]): 28.4% | IC50 (K562 [30]): 400 nM
Compound: C=C1C(=O)[C@@]23C(=O)OC[C@]4(C=CCC(C)(C)[C@H]4C=O)[C@@H]2CC[C@@H]1[C@H]3OC(=O)/C=C/c1cccnc1
Activity (K562 [1]): Dose-Dependent Effect | Activity (K562 [2]): 3.37% | Activity (K562 [3]): Dose-Dependent Effect | Activity (K562 [4]): 15.5% | Ratio IC50 (K562 [5]): 10 | Activity (K562 [6]): 24.28% | Activity (K562 [7]): 6.37% | Activity (K562 [8]): 27.83% | Activity (K562 [9]): 20.6% | IC50 at 72 h [10]: 4280 nM | Activity (K562 [11]): 55.2% | Activity (K562 [13]): 15.07% | viability at 0.4 µM (K562 [14]): 68.7% | Activity (K562 [15]): 20.53% | Activity (K562 [16]): Dose-Dependent Effect | Activity (K562 [17]): 64.33% | selectivity ratio [18]: 7.64 | viability at 0.1 µM (K562 [19]): 86% | Activity (K562 [20]): 5.01% | Activity (K562 [21]): 7.6% | Activity (K562 [22]): 61.3% | Activity (K562 [23]): Dose-Dependent Effect | Activity (K562 [24]): 9.41% | Activity (K562 [26]): 4.23% | Activity (K562 [27]): 13.9% | Activity (K562 [28]): 7.23% | viability at 0.2 µM (K562 [29]): 80.9% | Activity (K562 [31]): 24.8% | Activity (K562 [32]): 5.59%

— ChEMBL document CHEMBL5325391, “Spirolactone-type and enmein-type derivatives as potential anti-cancer agents derived from oridonin” (Bioorg Med Chem, 2022)
